For the experiment, the target named is T1, β1-GBD (Rattus norvegicus, UniProt P80386).
T1 construct: The rat β1 GBD (residues 70-172 was cloned into pGEX6P2, expressed in Escherichia coli (BL21)); made in house; host or cells: E. coli BL21
T1 sequence (P80386 70-172): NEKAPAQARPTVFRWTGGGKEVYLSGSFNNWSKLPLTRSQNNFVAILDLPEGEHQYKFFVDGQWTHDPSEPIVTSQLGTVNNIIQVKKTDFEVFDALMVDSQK
As to the kind of experiment: capture of glycogen hydrolysate fragments on GST-β1 GBD affinity column. The experiment is classed as binding. The note with it: from partial acid hydrolysate of bovine liver glycogen; eluted with propionic acid. From the text:
In an attempt to establish the chemical nature of the regions of glycogen that bind to the GBD and cause inhibition of the AMPK complex, we carried out partial acid hydrolysis of bovine liver glycogen and utilized the β1 GBD as an affinity matrix to purify hydrolysis products that bound to the GBD. The hydrolysis conditions were chosen to yield a range of oligosaccharides containing up to six glucose units, as detected by high-performance anion exchange chromatography (HPAEC). The hydrolysate was passed down a glutathione Sepharose column to which the GST-GBD had been prebound, and bound oligosaccharides eluted with propionic acid. The eluted oligosaccharides were analyzed by HPAEC (Figure 5A). […] That this disaccharide contained glucose was confirmed by collision-induced dissociation and tandem mass spectrometry (Figure 5B); the product ion spectrum contained a daughter peak at 203, corresponding to the mass of glucose plus one Na^+ ion. […]
To 60 μl of the material from HPAEC, 5 μl of 80% (v/v) acetonitrile plus 2% (v/v) formic acid was added. Small aliquots of this solution were transferred to Waters nanotips (Type F; Millipore, Watford, UK) and analyzed by electrospray ionization–mass spectrometry (ES-MS) in negative ion mode on an ABI Q-StarXL spectrometer (Applied Biosystems, Cambridge, UK). […]

The record followed here is article PMC2642990, “The Glycogen-Binding Domain on the AMPK β Subunit Allows the Kinase to Act as a Glycogen Sensor” (Cell Metabolism, 2009).

`OC[C@H]1O[C@H](OC[C@H]2OC(O)[C@H](O)[C@@H](O)[C@@H]2O)[C@H](O)[C@@H](O)[C@@H]1O` (stereo partly shown) [isomaltose]: the “binding to immobilised β1-GBD” value is recorded as “bound to the β1-GBD”.
